# Reference: PubChem BioAssay AID2305 (GlaxoSmithKline (GSK), 2010)
# Several values for one entry are separate records, joined by “and”; a condition that tells them apart may be missing. Equal entries are not always repeated.
# System: P. falciparum 3D7 growth, pLDH absorbance
# Experiment: blood-stage malaria parasite growth potency – strain 3D7, dose response (AID 2305)
row,Structure (SMILES),IC50
1,Cc1cccc(CC2CC(=O)N(c3ccc([N+](=O)[O-])cc3)C2=O)c1 (stereo not drawn),200 nM
2,CC1CCCCN1S(=O)(=O)c1ccc(NC(=O)c2cc(-c3ccccc3O)n[nH]2)cc1 (stereo not drawn),760 nM
3,Cc1[nH]c(C)c(-c2ccc(C(=O)c3ccc(Cl)cc3)cc2)c(=O)c1Cl,530 nM
4,Cc1[nH]c(C)c(-c2ccc(Oc3cccc(Cl)c3)cc2)c(=O)c1Br,30 nM
5,O=c1c(Br)ccccc1Br,790 nM
6,c1cc(Cc2ccc(Nc3c4ccccc4nc4ccccc34)cc2)cc(Nc2c3ccccc3nc3ccccc23)c1,140 nM
7,COc1cc2nc(Nc3ccc(N4CCOCC4)cc3)nc(N)c2cc1OC,870 nM
8,CC(CN1CCN(C)CC1)C(=O)Nc1cccc(-c2ccc(-c3nc4ccccc4[nH]3)cc2)c1 (stereo not drawn),940 nM
9,O=C(NCc1ccccc1)NC(CCCN1CCC(Oc2cccc(Cl)c2)CC1)c1ccc(Cl)c(Cl)c1 (stereo not drawn),860 nM
10,CCCCc1cc(NCc2ccncc2)nc(Nc2cccc(OC)c2)n1,740 nM
11,O=C(CNC1=NCCN1)Nc1ccc(NC(=O)Nc2ccc(NC(=O)CNC3=NCCN3)cc2)cc1,780 nM
12,COc1ccccc1N(C)CCNc1cc(C)nc(Nc2ccccc2)n1,1070 nM
13,CC(C)CN1C(=O)c2ccccc2C(C(=O)Nc2cccc(C#N)c2)C1c1cccs1 (stereo not drawn),160 nM
14,CCCCCCCC1CCN(C[C@H](O)c2ccnc3ccc(OC)cc23)CC1,960 nM
15,COc1ccc2nccc(NC(=O)C3(O)CCC(NCc4ncc5c(c4Cl)OCCO5)CC3)c2n1 (stereo not drawn),250 nM
16,COc1cc(NCCCCNc2ccc(Cl)c(Cl)c2)nc2ccccc12,530 nM
17,O=C(NCCCCN1CCC(c2ccc3c(c2OCc2ccncc2)CCCC3)CC1)c1ccc(NC(=O)c2ccc(Cl)cc2)cc1,220 nM
18,COc1cc(NC(=O)c2c(-c3c(Cl)cccc3Cl)noc2C)c(OC)cc1Cl,920 nM
19,CC(C)[C@H](NC(=O)c1c(F)cccc1F)C(=O)Nc1ccc(Cc2nc3ccccc3s2)cc1,500 nM
20,O=C(Nc1cccc(CN2CCCN(Cc3ccc4c(c3)OCO4)CC2)c1)c1ccc(Cl)c(Cl)c1,890 nM
21,Cc1cccc2[nH]c(-c3ccc(-c4cccc(CNCc5ccc(S(C)(=O)=O)cc5)c4)s3)nc12,330 nM
22,O=C(Nc1ccc(-c2ccc(-c3nc4ccc(C(F)(F)F)cc4[nH]3)s2)cc1)c1ccoc1,850 nM
23,CN1CCC(N(Cc2ccc(-c3ccc(Cl)cc3)cc2)C(=O)Cn2c(CCc3cccc(F)c3F)cc(=O)c3ccccc32)CC1,860 nM
24,O=C(/C=C/c1ccc(Cl)c(Cl)c1)NC1CCC(CN2CCC(c3cc4ccccc4[nH]3)CC2)CC1 (stereo not drawn),990 nM

row,Structure (SMILES),IC50
1,S=C(Nc1ccc2c(c1)OCCO2)NC1CCC(CN2CCC(c3c[nH]c4ccccc34)CC2)CC1 (stereo not drawn),650 nM and 1000 nM
2,O=S(=O)(Nc1cc2c(cc1OCc1ccccc1)CCN(C1CCC1)CC2)c1ccc(-c2ccc(Cl)cc2)cc1,1140 nM
3,CC[C@H](C)CNC(=O)c1cncc(-c2cccc(CN(C)C3CCN(C)CC3)c2)c1,780 nM
4,Cc1cccc2[nH]c(-c3ccc(-c4ccc(CN5CCN(CCN6CCOCC6)CC5)cc4)cc3)nc12,230 nM
5,CCN(CC)S(=O)(=O)c1ccc(C(=O)Oc2ccccc2N(Cc2ccc(OC)cc2)C2=NS(=O)(=O)c3ccccc32)cc1,580 nM
6,COc1ccc2nccc(NN=Cc3ccc(Cl)cc3)c2c1,210 nM
7,Cc1nn(-c2ccccc2)c2nc(-c3ccccc3)cc(C(=O)N3CCOCC3)c12,870 nM
8,CN(C)Cc1ccc(CN2CCN(CCOc3ccc(-c4ccc(Cl)cc4)cc3)CC2)o1,1020 nM
9,CN(C)CC1CCCN1Cc1ccccc1-c1cnn(C)c(=O)c1Oc1ccccc1F (stereo not drawn),1310 nM
10,CC[C@H]1CN2CC[C@@H]1C[C@H]2[C@H](O)c1cc(N2CCOCC2)nc2ccc(OC)cc12,120 nM
11,COc1cc(OC)cc(C(=O)Nc2nc(-c3ccccn3)cs2)c1,560 nM
12,CN1CCC(NCc2cccc(-c3cccc(-c4nc5ccc(C(F)(F)F)cc5[nH]4)c3)c2)CC1,140 nM
13,COc1c(C2=CCN(CCCCNC(=O)c3ccc(-c4ccc(C#N)cc4)cc3)CC2)c(C)cc2c1C(C)(C)CCC2(C)C,950 nM
14,Cc1cccc2[nH]c(-c3ccc(-c4ccc(CN5CCN(CC6CCCN(C)C6)CC5)cc4)s3)nc12 (stereo not drawn),140 nM
15,NCC1CCCN1Cc1ccc(-c2ccc(-c3nc4ccc(C(F)(F)F)cc4[nH]3)cc2)cc1 (stereo not drawn),960 nM
16,CC(=O)N(C)c1cccc(C(=O)Nc2ccc(-c3cccc(-c4nc5ccc(C(F)(F)F)cc5[nH]4)c3)cc2)c1,720 nM
17,COc1ccc2nccc([C@@H](O)CN3CCC(NC(=O)/C=C/c4ccc(F)c5ccccc45)CC3)c2c1,180 nM
18,Cc1ccc(CC(C)NCC(O)c2cccc(C(F)(F)F)c2)cc1F (stereo not drawn),920 nM
19,Cc1[nH]c(C)c(-c2ccc(C(F)(F)F)cc2)c(=O)c1Br,140 nM
20,O=C(Nc1ccc(C(F)(F)F)cc1)Nc1ccccc1N1CCNCC1,500 nM
21,CN1CCN(CCCCCNc2c3ccccc3nc3ccccc23)CC1,740 nM
22,Cc1ccccc1-c1nc2c(CN3CCC(O)(c4ccccc4)CC3)c(O)ccc2[nH]1,870 nM
23,Cc1cc(Cl)c(S(=O)(=O)N(C)c2ccccc2)cc1OCC(=O)NC1CCCCC1,300 nM
24,COc1cccc(O)c1CN1CCC2(CCCN(Cc3ccc(F)cc3)C2)C1 (stereo not drawn),870 nM
